Experimental data taken from patent US20090018111A1, “Novel Antimicrobial Medicament” (priority 2004, published 2009).
Where two headings read alike, the source gives them in different places.

Legend:
Experiment in all cases: Sensitivity test (agar dilution)
[1] = tested on: S. marcescens GN6473; format: cell-based, Serratia marcescens; details: Serratia marcescens
Method in brief: (§1)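 Each strain, cultured overnight at 37° C and adjusted to about 10^6 CFU/ml in BSG, was spotted (about 5 μl) on Mueller Hinton agar with twofold serial drug concentrations. Inhibition defines the MIC.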

[2] = tested on: S. marcescens X 100; format: cell-based, Serratia marcescens; details: Serratia marcescens
Method in brief: as §1

[3] = tested on: S. epidermidis IAM1296; format: cell-based, Staphylococcus epidermidis; details: Staphylococcus epidermidis
Method in brief: as §1

[4] = tested on: E. faecalis ATCC19433; format: cell-based, Enterococcus faecalis; details: Enterococcus faecalis
Method in brief: as §1

[5] = tested on: P. vulgaris GN7919; format: cell-based, Proteus vulgaris; details: Proteus vulgaris
Method in brief: as §1

[6] = tested on: P. vurgalis OX-19; format: cell-based, Proteus vulgaris; details: Proteus vulgaris
Method in brief: as §1

[7] = tested on: E. coli ML1410; format: cell-based, Escherichia coli; details: Escherichia coli
Method in brief: as §1

[8] = tested on: E. coli NIHJ JC-2; format: cell-based, Escherichia coli; details: Escherichia coli
Method in brief: as §1

[9] = tested on: S. aureus MS94088 (hetero-MRSA); format: cell-based, Staphylococcus aureus; details: Staphylococcus aureus, MRSA
Method in brief: as §1

[10] = tested on: S. aureus SP-7928 (homo-MRSA); format: cell-based, Staphylococcus aureus; details: Staphylococcus aureus, MRSA
Method in brief: as §1

[11] = tested on: S. aureus 209P; format: cell-based, Staphylococcus aureus; details: Staphylococcus aureus, 209P
Method in brief: as §1

[12] = tested on: E. cloacae GN7471; format: cell-based, Enterobacter cloacae; details: Enterobacter cloacae
Method in brief: as §1

[13] = tested on: C. freundii GN346; format: cell-based, Citrobacter freundii; details: Citrobacter freundii
Method in brief: as §1

[14] = Concomitant (MEPM:SM = 1:1), read-out: MIC
[15] = Concomitant (MEPM:SM = 1:4), read-out: MIC
[16] = Concomitant drug (MEPM:SM = 2:1), read-out: MIC
[17] = Concomitant (MEPM:SM = 1:2), read-out: MIC

C[C@@H](O)[C@H]1C(=O)N2C(C(=O)O)=C(S[C@@H]3CN[C@H](C(=O)N(C)C)C3)[C@H](C)[C@H]12 [MEPM, meropenem]
MIC ([1]; GN6473, Concomitant (MEPM:SM = 1:1), read-out: MIC): 0.031 µg/mL | MIC ([1]; GN6473, Concomitant (MEPM:SM = 1:2), read-out: MIC): 0.031 µg/mL | MIC ([1]; GN6473, Concomitant (MEPM:SM = 1:4), read-out: MIC): 0.031 µg/mL | MIC ([1]; GN6473, Concomitant drug (MEPM:SM = 2:1), read-out: MIC): 0.031 µg/mL | MIC ([1]; GN6473, alone, read-out: MIC): 0.063 µg/mL | MIC ([2]; X100, Concomitant (MEPM:SM = 1:1), read-out: MIC): ≤ 0.016 µg/mL | MIC ([2]; X100, Concomitant (MEPM:SM = 1:2), read-out: MIC): ≤ 0.016 µg/mL | MIC ([2]; X100, Concomitant (MEPM:SM = 1:4), read-out: MIC): ≤ 0.016 µg/mL | MIC ([2]; X100, Concomitant drug (MEPM:SM = 2:1), read-out: MIC): 0.031 µg/mL | MIC ([2]; X100, alone, read-out: MIC): 0.031 µg/mL | MIC ([3]; IAM1296, Concomitant (MEPM:SM = 1:1), read-out: MIC): ≤ 0.016 µg/mL | MIC ([3]; IAM1296, Concomitant (MEPM:SM = 1:2), read-out: MIC): ≤ 0.016 µg/mL | MIC ([3]; IAM1296, Concomitant (MEPM:SM = 1:4), read-out: MIC): ≤ 0.016 µg/mL | MIC ([3]; IAM1296, Concomitant drug (MEPM:SM = 2:1), read-out: MIC): 0.063 µg/mL | MIC ([3]; IAM1296, alone, read-out: MIC): 1 µg/mL | MIC ([4]; ATCC19433, Concomitant (MEPM:SM = 1:1), read-out: MIC): 1 µg/mL | MIC ([4]; ATCC19433, Concomitant (MEPM:SM = 1:2), read-out: MIC): 0.5 µg/mL | MIC ([4]; ATCC19433, Concomitant (MEPM:SM = 1:4), read-out: MIC): 0.25 µg/mL | MIC ([4]; ATCC19433, Concomitant drug (MEPM:SM = 2:1), read-out: MIC): 1 µg/mL | MIC ([4]; ATCC19433, alone, read-out: MIC): 4 µg/mL | MIC ([5]; GN7919, Concomitant (MEPM:SM = 1:1), read-out: MIC): 0.031 µg/mL | MIC ([5]; GN7919, Concomitant (MEPM:SM = 1:2), read-out: MIC): 0.031 µg/mL | MIC ([5]; GN7919, Concomitant (MEPM:SM = 1:4), read-out: MIC): 0.031 µg/mL | MIC ([5]; GN7919, Concomitant drug (MEPM:SM = 2:1), read-out: MIC): 0.031 µg/mL | MIC ([5]; GN7919, alone, read-out: MIC): 0.063 µg/mL | MIC ([6]; OX19, Concomitant (MEPM:SM = 1:1), read-out: MIC): ≤ 0.016 µg/mL | MIC ([6]; OX19, Concomitant (MEPM:SM = 1:2), read-out: MIC): ≤ 0.016 µg/mL | MIC ([6]; OX19, Concomitant (MEPM:SM = 1:4), read-out: MIC): ≤ 0.016 µg/mL | MIC ([6]; OX19, Concomitant drug (MEPM:SM = 2:1), read-out: MIC): 0.031 µg/mL | MIC ([6]; OX19, alone, read-out: MIC): 0.063 µg/mL | MIC ([7]; ML1410, Concomitant (MEPM:SM = 1:1), read-out: MIC): ≤ 0.016 µg/mL | MIC ([7]; ML1410, Concomitant (MEPM:SM = 1:2), read-out: MIC): ≤ 0.016 µg/mL | MIC ([7]; ML1410, Concomitant (MEPM:SM = 1:4), read-out: MIC): ≤ 0.016 µg/mL | MIC ([7]; ML1410, Concomitant drug (MEPM:SM = 2:1), read-out: MIC): ≤ 0.016 µg/mL | MIC ([7]; ML1410, alone, read-out: MIC): 0.031 µg/mL | MIC ([8]; NIHJJC2, Concomitant (MEPM:SM = 1:1), read-out: MIC): ≤ 0.016 µg/mL | MIC ([8]; NIHJJC2, Concomitant (MEPM:SM = 1:2), read-out: MIC): ≤ 0.016 µg/mL | MIC ([8]; NIHJJC2, Concomitant (MEPM:SM = 1:4), read-out: MIC): ≤ 0.016 µg/mL | MIC ([8]; NIHJJC2, Concomitant drug (MEPM:SM = 2:1), read-out: MIC): ≤ 0.016 µg/mL | MIC ([8]; NIHJJC2, alone, read-out: MIC): ≤ 0.016 µg/mL | MIC [9]: 0.125 µg/mL | MIC [9, 14]: 0.25 µg/mL | MIC [9, 15]: 0.063 µg/mL | MIC [9, 16]: 0.5 µg/mL | MIC ([9]; alone, read-out: MIC): 4 µg/mL | MIC [10, 14]: 1 µg/mL | MIC [10, 17]: 1 µg/mL | MIC [10, 15]: 0.5 µg/mL | MIC [10, 16]: 2 µg/mL | MIC ([10]; alone, read-out: MIC): 32 µg/mL | MIC [11, 14]: ≤ 0.016 µg/mL | MIC [11, 17]: ≤ 0.016 µg/mL | MIC [11, 15]: ≤ 0.016 µg/mL | MIC [11, 16]: ≤ 0.016 µg/mL | MIC ([11]; alone, read-out: MIC): 0.063 µg/mL | MIC ([12]; GN7471, Concomitant (MEPM:SM = 1:1), read-out: MIC): 0.031 µg/mL | MIC ([12]; GN7471, Concomitant (MEPM:SM = 1:2), read-out: MIC): 0.031 µg/mL | MIC ([12]; GN7471, Concomitant (MEPM:SM = 1:4), read-out: MIC): 0.031 µg/mL | MIC ([12]; GN7471, Concomitant drug (MEPM:SM = 2:1), read-out: MIC): 0.031 µg/mL | MIC ([12]; GN7471, alone, read-out: MIC): 0.063 µg/mL | MIC ([13]; GN346, Concomitant (MEPM:SM = 1:1), read-out: MIC): 0.031 µg/mL | MIC ([13]; GN346, Concomitant (MEPM:SM = 1:2), read-out: MIC): 0.031 µg/mL | MIC ([13]; GN346, Concomitant (MEPM:SM = 1:4), read-out: MIC): 0.031 µg/mL | MIC ([13]; GN346, Concomitant drug (MEPM:SM = 2:1), read-out: MIC): 0.031 µg/mL | MIC ([13]; GN346, alone, read-out: MIC): 0.063 µg/mL

CC(C)(O/N=C(\C(=O)N[C@@H]1C(=O)N2C(C(=O)[O-])=C(C[n+]3ccccc3)CS[C@H]12)c1csc(N)n1)C(=O)O [CAZ, ceftazidime]
MIC ([1]; GN6473, Concomitant (CAZ:SM = 1:1), S. marcescens GN6473, read-out: MIC concomitant): 0.5 µg/mL | MIC ([1]; GN6473, drug alone, S. marcescens GN6473, read-out: MIC alone): 0.5 µg/mL | MIC ([2]; X100, Concomitant (CAZ:SM = 1:1), S. marcescens X 100, read-out: MIC concomitant): 0.125 µg/mL | MIC ([2]; X100, drug alone, S. marcescens X 100, read-out: MIC alone): 0.25 µg/mL | MIC ([3]; IAM1296, Concomitant (CAZ:SM = 1:1), S. epidermidis IAM1296, read-out: MIC concomitant): 0.031 µg/mL | MIC ([3]; IAM1296, drug alone, S. epidermidis IAM1296, read-out: MIC alone): > 32 µg/mL | MIC ([4]; ATCC19433, Concomitant (CAZ:SM = 1:1), E. faecalis ATCC19433, read-out: MIC concomitant): 1 µg/mL | MIC ([4]; ATCC19433, drug alone, E. faecalis ATCC19433, read-out: MIC alone): > 32 µg/mL | MIC ([5]; GN7919, Concomitant (CAZ:SM = 1:1), P. vulgaris GN7919, read-out: MIC concomitant): 0.5 µg/mL | MIC ([5]; GN7919, drug alone, P. vulgaris GN7919, read-out: MIC alone): 0.5 µg/mL | MIC ([6]; OX19, Concomitant (CAZ:SM = 1:1), P. vurgalis OX-19, read-out: MIC concomitant): 0.008 µg/mL | MIC ([6]; OX19, drug alone, P. vurgalis OX-19, read-out: MIC alone): 0.031 µg/mL | MIC ([7]; ML1410, Concomitant (CAZ:SM = 1:1), E. coli ML1410, read-out: MIC concomitant): 0.063 µg/mL | MIC ([7]; ML1410, drug alone, E. coli ML1410, read-out: MIC alone): 0.25 µg/mL | MIC ([8]; NIHJJC2, Concomitant (CAZ:SM = 1:1), E. coli NIHJ JC-2, read-out: MIC concomitant): 0.063 µg/mL | MIC ([8]; NIHJJC2, drug alone, E. coli NIHJ JC-2, read-out: MIC alone): 0.25 µg/mL | MIC ([9]; Concomitant (CAZ:SM = 1:1), S. aureus MS94088 (hetero-MRSA), read-out: MIC concomitant): 0.25 µg/mL | MIC ([9]; drug alone, S. aureus MS94088 (hetero-MRSA), read-out: MIC alone): > 32 µg/mL | MIC ([10]; Concomitant (CAZ:SM = 1:1), S. aureus SP-7928 (homo-MRSA), read-out: MIC concomitant): 1 µg/mL | MIC ([10]; drug alone, S. aureus SP-7928 (homo-MRSA), read-out: MIC alone): > 32 µg/mL | MIC ([11]; Concomitant (CAZ:SM = 1:1), S. aureus 209P, read-out: MIC concomitant): 0.004 µg/mL | MIC ([11]; drug alone, S. aureus 209P, read-out: MIC alone): 8 µg/mL | MIC ([12]; GN7471, Concomitant (CAZ:SM = 1:1), E. cloacae GN7471, read-out: MIC concomitant): 8 µg/mL | MIC ([12]; GN7471, drug alone, E. cloacae GN7471, read-out: MIC alone): 32 µg/mL | MIC ([13]; GN346, Concomitant (CAZ:SM = 1:1), C. freundii GN346, read-out: MIC concomitant): 8 µg/mL | MIC ([13]; GN346, drug alone, C. freundii GN346, read-out: MIC alone): 1 µg/mL
